Measured values as given in ChEMBL document CHEMBL1201862, “PubChem BioAssay data set” (2004).
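1) Cells in 96-well plates. 2) Compound, 48 h, 5 concentrations. 3) Linear interpolation between surrounding doses. 4) Unreached endpoint = highest concentration. Abbreviation: GI50, concentration required for 50% inhibition of growth.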 The source made the active and inactive calls. Rule as the data show it: active = GI50 up to about 1.1 µM and inactive = higher.

Experiments:
Experiment in all cases: inhibition of tumour cell growth, NCI panel, 48 h
[1] = test system: 786-0
[2] = test system: A498
[3] = test system: ACHN
[4] = test system: EKVX
[5] = test system: HCT-116
[6] = test system: HOP-92
[7] = test system: HT-29
[8] = test system: MOLT-4
[9] = test system: Malme-3M
[10] = test system: NCI-H460
[11] = test system: OVCAR-4
[12] = test system: OVCAR-5
[13] = test system: OVCAR-8
[14] = test system: RXF 393
[15] = test system: SF-295
[16] = test system: SK-MEL-5
[17] = test system: SNB-75
[18] = test system: UACC-257

Row | SMILES | GI50 [1] | GI50 [2] | GI50 [3] | GI50 [4] | GI50 [5] | GI50 [6] | GI50 [7] | GI50 [8] | GI50 [9] | GI50 [10] | GI50 [11] | GI50 [12] | GI50 [13] | GI50 [14] | GI50 [15] | GI50 [16] | GI50 [17] | GI50 [18]
1 | N#Cc1c(N2CCCC2)ncn(-c2ccccc2)c1=O | > 100 µM (inactive) | > 100 µM (inactive) | > 100 µM (inactive) | > 100 µM (inactive) | > 100 µM (inactive) | > 100 µM (inactive) | > 100 µM (inactive) | > 100 µM (inactive) | > 100 µM (inactive) | > 100 µM (inactive) | > 100 µM (inactive) | > 100 µM (inactive) | > 100 µM (inactive) | > 100 µM (inactive) | > 100 µM (inactive) | > 100 µM (inactive) | > 100 µM (inactive) | > 100 µM (inactive)
2 | C=C(Cl)CN1c2ccccc2C=Cc2ccccc21 | 14.2 µM (inactive) | 34.7 µM (inactive) | 7.05 µM (inactive) | 19.1 µM (inactive) | 5.01 µM (inactive) | 22.3 µM (inactive) | 9.44 µM (inactive) |  | 27.5 µM (inactive) | 3.61 µM (inactive) | 21.3 µM (inactive) | 19.9 µM (inactive) | 14.8 µM (inactive) | 13 µM (inactive) | 10.4 µM (inactive) | 7.23 µM (inactive) | 24.7 µM (inactive) | 16.3 µM (inactive)
3 | O=C(/C=C/c1ccc([N+](=O)[O-])cc1)N1CCN(CCOC(c2ccc(F)cc2)c2ccc(F)cc2)CC1 | 67.6 µM (inactive) | 16 µM (inactive) | 4.34 µM (inactive) | > 100 µM (inactive) | 9.64 µM (inactive) | 6.58 µM (inactive) | 13 µM (inactive) | 3.6 µM (inactive) | > 100 µM (inactive) | 11.3 µM (inactive) | 8.75 µM (inactive) | > 100 µM (inactive) | 8.87 µM (inactive) | 9.44 µM (inactive) | 69.5 µM (inactive) | 13.9 µM (inactive) | 4.7 µM (inactive) | > 100 µM (inactive)
4 | CN(C)c1c(Cl)c(=O)oc2c1ccc1nc(-c3ccccc3)sc12 | > 100 µM (inactive) | > 100 µM (inactive) | > 100 µM (inactive) | > 100 µM (inactive) | > 100 µM (inactive) | > 100 µM (inactive) | > 100 µM (inactive) | > 100 µM (inactive) | 31.5 µM (inactive) | > 100 µM (inactive) | > 100 µM (inactive) | > 100 µM (inactive) | > 100 µM (inactive) | 55.3 µM (inactive) | > 100 µM (inactive) | > 100 µM (inactive) |  | > 100 µM (inactive)
5 | Oc1ccc(Cl)cc1-c1cc(-c2ccccc2)nc(NCN2CCCCC2)n1 | > 100 µM (inactive) | > 100 µM (inactive) | 24.2 µM (inactive) | > 100 µM (inactive) | 6.68 µM (inactive) | > 100 µM (inactive) | > 100 µM (inactive) | > 100 µM (inactive) | > 100 µM (inactive) | > 100 µM (inactive) | > 100 µM (inactive) | > 100 µM (inactive) | > 100 µM (inactive) | > 100 µM (inactive) |  | 15.8 µM (inactive) | > 100 µM (inactive) | > 100 µM (inactive)
6 | CC1(C)C=C(/C=N/Nc2ccccc2)C(C#N)=C(O)C1(C#N)C#N | > 100 µM (inactive) | 48.6 µM (inactive) | > 100 µM (inactive) | > 100 µM (inactive) | > 100 µM (inactive) | 28.5 µM (inactive) | 93.8 µM (inactive) | 57.7 µM (inactive) | > 100 µM (inactive) | 92.7 µM (inactive) | > 100 µM (inactive) | > 100 µM (inactive) | > 100 µM (inactive) | > 100 µM (inactive) | 90.4 µM (inactive) | > 100 µM (inactive) | > 100 µM (inactive) | > 100 µM (inactive)
7 | CN(C)c1ccc(/C=N/c2nc3cc4sc(/N=C/c5ccc(N(C)C)cc5)nc4cc3s2)cc1 | 49.7 µM (inactive) | 26.7 µM (inactive) | 66.1 µM (inactive) | > 100 µM (inactive) | 30.5 µM (inactive) | > 100 µM (inactive) | 34.1 µM (inactive) | 12.9 µM (inactive) | > 100 µM (inactive) | 5.4 µM (inactive) | > 100 µM (inactive) | > 100 µM (inactive) | 76 µM (inactive) |  | > 100 µM (inactive) | > 100 µM (inactive) | 63.2 µM (inactive) | > 100 µM (inactive)
8 | COc1ccc(/C=C2\N=C(c3ccccc3)OC2=O)cc1OC(C)=O | 56 µM (inactive) | > 100 µM (inactive) | 33.6 µM (inactive) |  | 58.9 µM (inactive) | 54.1 µM (inactive) | 47.3 µM (inactive) | 0.615 µM (active) | 13.5 µM (inactive) | > 100 µM (inactive) | 63.1 µM (inactive) | > 100 µM (inactive) | 50.4 µM (inactive) | > 100 µM (inactive) |  | 63 µM (inactive) | 52.5 µM (inactive) | > 100 µM (inactive)
9 | FC(F)(F)c1ccccc1N1CCN(c2nc(-c3cccs3)nc3ccc(Br)cc23)CC1 | 38.2 µM (inactive) | 71.3 µM (inactive) | 36.6 µM (inactive) | 24.4 µM (inactive) | 33.2 µM (inactive) | < 0.01 µM (active) | 29.5 µM (inactive) | 44.5 µM (inactive) | 24 µM (inactive) | 27.7 µM (inactive) | 5.16 µM (inactive) | 27.6 µM (inactive) | 66.2 µM (inactive) |  | 30.3 µM (inactive) | 14.6 µM (inactive) | 24.9 µM (inactive) | 37.6 µM (inactive)
10 | COc1ccc(/C=C(/C#N)C(N)=O)c(OC)c1 | > 100 µM (inactive) | 10.8 µM (inactive) | > 100 µM (inactive) | > 100 µM (inactive) | 64 µM (inactive) | 36.4 µM (inactive) | > 100 µM (inactive) | > 100 µM (inactive) |  | > 100 µM (inactive) | > 100 µM (inactive) | > 100 µM (inactive) | > 100 µM (inactive) | > 100 µM (inactive) | 82.8 µM (inactive) | 50.9 µM (inactive) | 72.1 µM (inactive) | 89.5 µM (inactive)
11 | Cc1ccc(C(=O)c2[nH]c(NCc3ccccc3)c(C(=S)Nc3ccccc3)c2N)cc1 | 5.9 µM (inactive) | 17 µM (inactive) | 11.4 µM (inactive) | 13.6 µM (inactive) | 4.35 µM (inactive) | 6.58 µM (inactive) | 3.24 µM (inactive) | 2.83 µM (inactive) |  | 5.64 µM (inactive) | 2.74 µM (inactive) | 14 µM (inactive) | 12.1 µM (inactive) | 5.78 µM (inactive) | 5.06 µM (inactive) |  | 4.85 µM (inactive) | 5.75 µM (inactive)
12 | c1csc(-c2ccsc2-c2cccs2)c1 | > 100 µM (inactive) | 36 µM (inactive) | > 100 µM (inactive) | > 100 µM (inactive) | 92.9 µM (inactive) | > 100 µM (inactive) | > 100 µM (inactive) | 11.9 µM (inactive) |  | 80.9 µM (inactive) | 33 µM (inactive) | > 100 µM (inactive) | > 100 µM (inactive) | 44.9 µM (inactive) | > 100 µM (inactive) | 98.9 µM (inactive) | 54.6 µM (inactive) | > 100 µM (inactive)
13 | C(CCCCc1nnc(N2CCOCC2)o1)CCCc1nnc(N2CCOCC2)o1 | > 100 µM (inactive) | > 100 µM (inactive) | > 100 µM (inactive) | > 100 µM (inactive) | > 100 µM (inactive) | > 100 µM (inactive) | > 100 µM (inactive) | > 100 µM (inactive) |  | > 100 µM (inactive) | > 100 µM (inactive) | > 100 µM (inactive) | > 100 µM (inactive) | > 100 µM (inactive) | > 100 µM (inactive) | > 100 µM (inactive) | > 100 µM (inactive) | > 100 µM (inactive)
14 | COc1ccccc1-c1cc(O)c2ccc(C)nc2n1 |  | > 100 µM (inactive) | > 100 µM (inactive) | 97.3 µM (inactive) |  | 32.8 µM (inactive) | 26.6 µM (inactive) | > 100 µM (inactive) | 51.5 µM (inactive) |  | > 100 µM (inactive) | > 100 µM (inactive) | > 100 µM (inactive) | > 100 µM (inactive) |  |  |  | > 100 µM (inactive)
15 | O=C(/C(=C(/Br)I)c1ccccc1)c1ccccc1 | 18.2 µM (inactive) | 15 µM (inactive) | 29.4 µM (inactive) | 29 µM (inactive) | 16 µM (inactive) | 18.8 µM (inactive) | 17.9 µM (inactive) | 15.2 µM (inactive) | 14.5 µM (inactive) | 19.1 µM (inactive) |  | 48.6 µM (inactive) | 23.5 µM (inactive) | 16.8 µM (inactive) | 27.2 µM (inactive) | 14.6 µM (inactive) | 26.3 µM (inactive) | 17.8 µM (inactive)
16 | Cc1ccc(S(=O)(=O)NCCCSCCO)cc1 |  | > 100 µM (inactive) | > 100 µM (inactive) |  | 27.2 µM (inactive) | 36.4 µM (inactive) | 33.6 µM (inactive) | 56.5 µM (inactive) |  | 43.9 µM (inactive) | 96.8 µM (inactive) |  | 57.8 µM (inactive) | > 100 µM (inactive) | > 100 µM (inactive) | 13.9 µM (inactive) | 33.1 µM (inactive) | 44.1 µM (inactive)
17 | Cc1cccc(NC(=S)Nc2ccc(Cl)cc2)n1 | > 100 µM (inactive) | > 100 µM (inactive) | > 100 µM (inactive) | > 100 µM (inactive) | > 100 µM (inactive) | > 100 µM (inactive) | > 100 µM (inactive) | > 100 µM (inactive) |  | > 100 µM (inactive) | > 100 µM (inactive) |  | > 100 µM (inactive) | > 100 µM (inactive) | > 100 µM (inactive) | > 100 µM (inactive) | > 100 µM (inactive) | > 100 µM (inactive)
